Measurements published in patent US20160274120A1, “METHODS OF DETERMINING WHETHER THE WNT SIGNALING PATHWAY IS UPREGULATED IN A TUMOR” (ICAHN SCHOOL OF MEDICINE AT MOUNT SINAI, priority 2009, published 2016).

Key:
Format in all cases: cell-based, human
TCF reporter activity = test: TCF mediated luciferase reporter activity (TOP/FOP) in NSCLC cell lines
Method: 24 hours before infection, stable reporter cell lines expressing TOP or FOP TCF luciferase and renilla luciferase were plated in 6 well plates at I×IO^5 cells/well. The following day cells were infected with lentiviruses expressing different Wnt antagonists, selected with 2 μg/ml puromycin for 3 days, lysed and processed for luciferase reporter assay using the dual luciferase reporter Kit (Promega) according to the manufacturer's protocol. Luciferase reporter activity was calculated by dividing the ratio TOP/RL by the FOP/RL ratio. Results were normalized to the results with vector transduced cultures.
analysis, cells were co-infected with TOP or FOP firefly luciferase mixed with a lentivirus expressing renilla luciferase (RL) used to normalize for infection efficiency (1:20-1:40 ratio). To assess the effects of FRP1 and DKK1 on TCF luciferase reporter activity, stable reporter cell lines were plated in 6 well plates and infected with vector, FRP1 or DKK1 lentiviruses. Cells were selected for 3 days with puromycin, lysed and processed for dual luciferase analysis. To generate stable inducible lines, cells were infected consecutively with tetracycline trans-activator (tTa) expressing lentivirus, selected for two weeks with 5-10 μg/ml blasticidin, followed by a second infection with lentiviruses expressing inducible FRP1, DKK1, DNTCF-4 or DNTCF-4-mOrange or empty vector, and selected for 4-7 days in 2 μg/ml puromycin in the presence of 10 ng/ml doxycycline. For induction of the antagonists, cells were trypsinized, washed with PBS and plated into 10 cm plates in the presence or absence of doxycyclin. Control cells expressing tTa or empty vector were processed in the same way. All infections were performed for 16 hr in the presence of 8 μg/ml polybrene.

axin2 = test: Real time PCR quantification of axin2 mRNA expression in NSCLC cells
Method: (§1) Total RNA was isolated from cells using the Trizol Reagent (Invitrogen) according to the manufacturer's protocol. Semi-quantitative RT-PCR screen was performed using One Step RT-PCR Kit (Invitrogen) according to the manufacturer's protocol. PCR products were separated on 1% agarose gel. 5 μg total RNA was reverse transcribed using Superscript II reverse transcriptase (Invitrogen). Quantitative PCR was performed using SybrGreen 2× master mix (Roche) on a MJ Opticon or Stratagene MxPro3005. 50 ng cDNA were amplified as follows: 94° C. for 15 min, 94° C. for 15 s, 60° C. for 30 s, 72° C. for 1 min. Steps 2 through 4 were repeated for 40 cycles. Each reaction was performed in duplicate, and results of 3 independent experiments were used for statistical analysis. Relative mRNA expression levels were quantified using the ΔΔC(t) method (Pfaffl, 2001). Results were normalized to those for TATA Binding Protein (TBP). Primer sequences can be found in Tables 4 and 5.

Wnt2 = test: shRNA knockdown quantification of Wnt2 mRNA; conditions: H23 cells, lentiviral shRNA
Text: (§2) An shRNA construct targeting human Wnt2 was obtained from Open Biosystems. The 21 bp sequence was 5′-[…]-3′ (SEQ ID NO: 1). An shRNA construct targeting GFP containing 21 bp sequence 5′ […]-3′ (SEQ ID NO: 2), was obtained from Addgene. An shRNA construct targeting human Wnt3a was generated and had the following sequence 5′-GGCGTGGCTTCTGCAGAA-3′ (SEQ ID NO: 61). Viruses were produced in 293T cells using FuGENE 6 (Roche) as described above.
as §1

Wnt3a = test: shRNA knockdown quantification of Wnt3a mRNA; conditions: H1819 cells, lentiviral shRNA
Text: as §2, §1

Substance | TCF mediated luciferase reporter activity (TCF reporter activity; H23 cells, Wnt2 knockdown) | axin2 expression (axin2; H23 cells, Wnt2 knockdown) | knock down of Wnt2 mRNA expression (Wnt2) | TCF mediated luciferase reporter activity (TCF reporter activity; H1819 cells, Wnt3a knockdown) | axin2 expression (axin2; H1819 cells, Wnt3a knockdown) | knock down of Wnt3a mRNA expression (Wnt3a)
Wnt2 shRNA: shRNA construct targeting human Wnt2 from Open Biosystems, 5′-GCTCATGTACTCTCAGGACAT-3′ (SEQ ID NO: 1) (GCTCATGTACTCTCAGGDCAT; chemistry not fully specified) [reference compound] | significant decrease | significant decrease | 80% | – | – | –
Wnt3a shRNA: shRNA construct targeting human Wnt3a, 5′-GGCGTGGCTTCTGCAGAA-3′ (SEQ ID NO: 61) [reference compound] | – | – | – | significant decrease | significant decrease | 70%
